Key:
human GPR40 = biological target: T1, human GPR40 (Homo sapiens, UniProt O14842, R211H); assay: Measurement of GPR40 agonistic activity (intracellular calcium, FLIPR, CHO cell line expressing human GPR40); format: cell-based; conditions: change in fluorescence intensity one minute after measurement
T1 construct: expressed in transfected cells; host or cells: CHO dhfr- cells stably transfected with plasmid pEF-BOS-dhfr-GPR40
Description: Test Method 1: Measurement of GPR40 Agonistic Activity i) Cloning of Human GPR40
In accordance with procedures as described below, the full-length sequence of GPR40 was obtained by a polymerase chain reaction (PCR) to set human genomic DNA (Clontech) as a template.
Oligonucleotide which consists of a base sequence represented by SEQ ID NO. 1 was used as a forward primer, and oligonucleotide which consists of a base sequence represented by SEQ ID NO. 2 was used as a reverse primer. To each 5′ terminus of the forward primer and the reverse primer described above, a base sequence including the XbaI recognition site is attached. In the PCR, using Taq DNA polymerase (Ex Taq DNA polymerase; TAKARA BIO INC.), a cycle consisting of 94° C. (15 sec)/55° C. (30 sec)/72° C. (1 min) was repeated 30 times in the presence of 5% DMSO. As a result, the DNA fragment of about 0.9 kbp was amplified. This DNA fragment was digested with XbaI, followed by inserting into the XbaI site of plasmid pEF-BOS-dhfr (Nucleic Acids Research, 18, 5322, 1990) to obtain plasmid pEF-BOS-dhfr-GPR40.
The base sequence of GPR40 gene in plasmid pEF-BOS-dhfr-GPR40 was decided by a dideoxy terminator method using a DNA sequencer (ABI377 DNA Sequencer; Applied Biosystems). The base sequence of GPR40 gene was the same with the base sequence represented by SEQ ID NO. 3. The base sequence represented by SEQ ID NO. […] 4 […]
ii) Preparation of GPR40 Stable Expression Cell
A CHO dhfr cell (CHO cell deleting a dihydrofolate reductase (dhfr) gene) was used as a cell in which GPR 40 protein was expressed. In addition, the plasmid pEF-BOS-dhfr-GPR40 obtained in the above i) was used as an expressing plasmid to express GPR40 protein. To a 6 well plate (Asahi Techno Glass Corp.), the CHO dhfr cells were seeded to become 80 to 90% confluent in an aMEM medium having 10% fetal calf serum (FCS), and cultivated overnight. Then, 2 μg of plasmid pEF-BOS-dhfr-GPR40 per well was transferred generetically thereto using a transfection reagent (Lipofectamine 2000; Invitrogen Corporation). After cultivating for 24 hours subsequent to the gene transfer, the cell were diluted and reseeded. On this occasion, the αMEM medium having 10% FCS was changed for an αMEM medium having 10% FCS and no nucleic acid. After 20 days cultivation, formed cell colonies were collected respectively and cultivated, thereby obtaining CHO cells stably expressing GPR40. Among these, cells high-reactive to an oleic acid and a linoleic acid which were intrinsic ligands were selected. […]
iii) Measurement of GPR40 Agonistic Activity
The GPR40 agonistic activity was measured with fluctuation of the intracellular calcium concentration as an index by FLIPR (registered trademark, Molecular Devices Corporation). Hereinafter, test methods will be described.
A CHO cell line expressing human GPR40 was seeded with 6×10^3 per well to a 384-well black plate (Becton, Dickinson and Company), and cultivated in a CO2 incubator overnight. For a luminescent pigment, a Calcium-3 assay kit (Molecular Devices Corporation) was used, and dissolved in 10 ml of a HBSS-HEPES buffer (PH7.4, 1×HBSS, 20 mM HEPES, Invitrogen Corporation) for a bottle. 35.68 mg of probenecid (Sigma) was dissolved in 250 μl of 1M NaOH, and then 250 μl of a HBSS-HEPES buffer was added to blend. 16 ml of a HBSS-HEPES buffer, 640 μl of the luminescent pigment and 32 μl of probenecid were added to blend for a solution of the luminescent pigment per plate. The medium of the plate was removed, 40 μl of the solution of the luminescent pigment per well was dispensed, followed by incubating at room temperature for 2 hours. A compound to be inspected was dissolved in DMSO, and diluted with a HBSS-HEPES buffer. A reaction was initiated by 10 μl of dispensation, the fluctuation of the intracellular calcium concentration was measured by FLIPR. An EC50 value of the compound to be inspected was calculated from the dose-response curve of change in fluorescence intensity one minute after measurement.

normal mice = assay: Single oral glucose tolerance test on normal mice; format: in vivo; conditions: Mus musculus; for inhibition in vivo at 10 mg/kg: 0.5 h, read-out: Reduction rate of blood glucose level (%); for minimal effective dose: read-out: MED
Description: Test Method 3: Single Oral Glucose Tolerance Test on Normal Mice
The anti-hyperglycemic action after glycemic load of the compound to be inspected was examined using normal mice. Hereinafter, the test method will be described.
Male ICR mice which was preparedly reared for one week (6-week-old) was fasted overnight, and used as an animal to be inspected. A compound to be inspected was 0.5% methylcellulose suspension, and the suspension was orally administered 30 minutes before the glucose (2 g/kg) load. With regard to some compounds to be inspected, prior blood drawing was performed (0 min value), and blood glucose levels were measured at 5, 15, 30, 60 and 120 minutes later glucose load when the compound to be inspected was orally administered. A control group was given 0.5% methylcellulose. The evaluation was carried out in the following manner. (Evaluation 1) The reduction rate of blood glucose levels after glucose loading (%) with respect to the control group was calculated at a point of glucose load which is 30 minutes after the oral administration of 10 mg/kg of the compound to be inspected. […] Ex represents example compound numbers.
(Evaluation 2) The reduction rate of blood glucose levels after glucose loading (%) with respect to the control group was calculated at a point of glucose load which is 30 minutes after the oral administration of 10, 3, 1, 0.3 or 0.1 mg/kg of the compound to be inspected. […] Ex represents example compound numbers. In addition, MED describing “below” in Table 3 means that a test was not carried out due to less than dose described.
The area under the blood concentration-time curve (AUC) of blood glucose levels for 0 to 120 minute(s) was calculated from the blood glucose levels before the blood drawing, and the blood glucose levels at 5, 15, 30, 60, and 120 minutes after the glucose load when 30, 10, 3, 1 or 0.3 mg/kg of the compound to be inspected was orally administered.

T1 sequence (O14842 whole entry R211H): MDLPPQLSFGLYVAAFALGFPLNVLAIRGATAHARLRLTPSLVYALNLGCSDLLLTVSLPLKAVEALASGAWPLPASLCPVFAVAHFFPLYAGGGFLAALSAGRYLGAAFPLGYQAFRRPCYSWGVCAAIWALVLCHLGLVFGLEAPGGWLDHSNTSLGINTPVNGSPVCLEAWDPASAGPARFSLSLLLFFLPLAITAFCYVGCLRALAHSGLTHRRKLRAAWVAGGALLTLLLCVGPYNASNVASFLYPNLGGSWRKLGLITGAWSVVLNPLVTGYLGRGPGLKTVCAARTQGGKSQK

Cc1cc(OCCO)cc(C)c1-c1cccc(CNc2ccc(Cn3oc(=O)[n-]c3=O)cc2)c1C.[Na+] [Example 70] gave an EC50 (human GPR40) of 70 nM, an inhibition in vivo at 10 mg/kg (normal mice) of 31% and a minimal effective dose (normal mice) of 10 mg/kg.

Cc1cc(OC[C@H](O)CO)cc(C)c1-c1cccc(CNc2ccc(Cn3oc(=O)[n-]c3=O)cc2)c1C.[Na+] [Example 69] showed an EC50 (human GPR40) of 69 nM, an inhibition in vivo at 10 mg/kg (normal mice) of 34% and a minimal effective dose (normal mice) of 1 mg/kg.

With Cc1cc(OCCO)cc(C)c1-c1cccc(CNc2ccc(Cn3oc(=O)[n-]c3=O)cn2)c1C.[Na+] [Example 80] the EC50 (human GPR40) was 250 nM, the inhibition in vivo at 10 mg/kg (normal mice) was 26% and the minimal effective dose (normal mice) was 10 mg/kg.

With Cc1cc(-c2cccc(CNc3ccc(Cn4oc(=O)[n-]c4=O)cc3)c2C)c(C)cc1OC[C@@H](O)CO.[Na+] [Example 96] the EC50 (human GPR40) was 190 nM, the inhibition in vivo at 10 mg/kg (normal mice) was 23% and the minimal effective dose (normal mice) was 10 mg/kg.

For Cc1cc(OCCC(C)(C)O)nc(C)c1-c1cccc(COc2ccc(Cn3oc(=O)[n-]c3=O)cc2)c1C.[Na+] [Example 60], the EC50 (human GPR40) was 160 nM, the inhibition in vivo at 10 mg/kg (normal mice) was 45% and the minimal effective dose (normal mice) was < 3 mg/kg.

For Cc1cc(OCC[C@@H](C)O)nc(C)c1-c1cccc(CNc2ccc(Cn3oc(=O)[n-]c3=O)cc2)c1C.[Na+] [Example 81], the EC50 (human GPR40) was 160 nM, the inhibition in vivo at 10 mg/kg (normal mice) was 33% and the minimal effective dose (normal mice) was < 3 mg/kg.

For Cc1cc(-c2cccc(COc3ccc(Cn4oc(=O)[n-]c4=O)cc3)c2C)c(C)cc1OCCO.[Na+] [Example 63], the EC50 (human GPR40) was 380 nM, the inhibition in vivo at 10 mg/kg (normal mice) was 22% and the minimal effective dose (normal mice) was < 1 mg/kg.

Compound Cc1c(CNc2ccc(Cn3oc(=O)[nH]c3=O)cc2)cccc1-c1cccc(OCCO)c1C [Example 107] has an EC50 (human GPR40) of 93 nM.

Cc1cc(OC[C@@H](O)CO)cc(C)c1-c1cccc(COc2ccc(Cn3oc(=O)[n-]c3=O)cc2)c1C.[Na+] [Example 7] showed an EC50 (human GPR40) of 410 nM, an inhibition in vivo at 10 mg/kg (normal mice) of 30% and a minimal effective dose (normal mice) of 10 mg/kg.

For Cc1cc(OCC[C@@H](C)O)cc(C)c1-c1cccc(COc2ccc(Cn3oc(=O)[n-]c3=O)cn2)c1C.[Na+] [Example 44], the EC50 (human GPR40) was 190 nM, the inhibition in vivo at 10 mg/kg (normal mice) was 34% and the minimal effective dose (normal mice) was < 0.3 mg/kg.

Cc1cc(OCCO)c(F)cc1-c1cccc(COc2ccc(Cn3oc(=O)[n-]c3=O)cc2)c1C.[Na+] [Example 94] gave an EC50 (human GPR40) of 640 nM, an inhibition in vivo at 10 mg/kg (normal mice) of 39% and a minimal effective dose (normal mice) of 3 mg/kg.

In the case of Cc1cc(OCC[C@H](C)O)cc(C)c1-c1cccc(COc2ccc(Cn3oc(=O)[n-]c3=O)cn2)c1C.[Na+] [Example 45], the EC50 (human GPR40) is reported as 280 nM, the inhibition in vivo at 10 mg/kg (normal mice) is reported as 35% and the minimal effective dose (normal mice) is reported as 1 mg/kg.

Cc1cc(OC[C@@H](O)CO)cc(C)c1-c1cccc(CNc2ccc(Cn3oc(=O)[n-]c3=O)cc2)c1C.[Na+] [Example 68] showed an EC50 (human GPR40) of 22 nM, an inhibition in vivo at 10 mg/kg (normal mice) of 23% and a minimal effective dose (normal mice) of 3 mg/kg.

In the case of Cc1cc(OC[C@H](O)CO)cc(C)c1-c1cccc(COc2ccc(Cn3oc(=O)[n-]c3=O)cc2)c1C.[Na+] [Example 26], the EC50 (human GPR40) is reported as 410 nM, the inhibition in vivo at 10 mg/kg (normal mice) is reported as 27% and the minimal effective dose (normal mice) is reported as 10 mg/kg.

Compound CCC(=O)NCCCOc1cc(C)c(-c2cccc(COc3ccc(Cn4oc(=O)[n-]c4=O)cc3)c2C)c(C)c1.[Na+] [Example 119] has an EC50 (human GPR40) of 810 nM, an inhibition in vivo at 10 mg/kg (normal mice) of 26% and a minimal effective dose (normal mice) of 3 mg/kg.

Compound COC[C@@H](O)COc1cc(C)c(-c2cccc(COc3ccc(Cn4oc(=O)[n-]c4=O)cc3)c2C)c(C)c1.[Na+] [Example 56] has an EC50 (human GPR40) of 820 nM, an inhibition in vivo at 10 mg/kg (normal mice) of 29% and a minimal effective dose (normal mice) of 3 mg/kg.

With Cc1cc(-c2cccc(CNc3ccc(Cn4oc(=O)[n-]c4=O)cc3)c2C)c(C)cc1OC[C@H](O)CO.[Na+] [Example 97] the EC50 (human GPR40) was 190 nM, the inhibition in vivo at 10 mg/kg (normal mice) was 29% and the minimal effective dose (normal mice) was 10 mg/kg.

With Cc1cc(OCC[C@@H](C)O)nc(C)c1-c1cccc(COc2ccc(Cn3oc(=O)[n-]c3=O)cc2)c1C.[Na+] [Example 84] the EC50 (human GPR40) was 280 nM, the inhibition in vivo at 10 mg/kg (normal mice) was 35% and the minimal effective dose (normal mice) was < 3 mg/kg.

Compound Cc1cc(-c2cccc(CNc3ccc(Cn4oc(=O)[n-]c4=O)cc3)c2C)c(C)nc1OCCO.[Na+] [Example 89] has an EC50 (human GPR40) of 110 nM, an inhibition in vivo at 10 mg/kg (normal mice) of 25% and a minimal effective dose (normal mice) of 3 mg/kg.

CO[C@@H](CO)COc1cc(C)c(-c2cccc(COc3ccc(Cn4oc(=O)[n-]c4=O)cc3)c2C)c(C)c1.[Na+] [Example 74] gave an EC50 (human GPR40) of 320 nM, an inhibition in vivo at 10 mg/kg (normal mice) of 23% and a minimal effective dose (normal mice) of 3 mg/kg.

Work on Cc1c(COc2ccc(Cn3oc(=O)[n-]c3=O)cc2)cccc1-c1ccc(OCCC(C)(C)O)c(C)c1C.[Na+] [Example 32] yielded an EC50 (human GPR40) of 68 nM, an inhibition in vivo at 10 mg/kg (normal mice) of 47% and a minimal effective dose (normal mice) of 1 mg/kg.

In the case of Cc1cc(OCCCNC(=O)C2CC2)cc(C)c1-c1cccc(COc2ccc(Cn3oc(=O)[n-]c3=O)cc2)c1C.[Na+] [Example 21], the EC50 (human GPR40) is reported as 600 nM, the inhibition in vivo at 10 mg/kg (normal mice) is reported as 26% and the minimal effective dose (normal mice) is reported as 3 mg/kg.

In the case of Cc1cc(OCC[C@H](O)CO)cc(C)c1-c1cccc(CNc2ccc(Cn3oc(=O)[n-]c3=O)cc2)c1C.[Na+] [Example 102], the EC50 (human GPR40) is reported as 230 nM, the inhibition in vivo at 10 mg/kg (normal mice) is reported as 48% and the minimal effective dose (normal mice) is reported as 10 mg/kg.

Cc1cc(OCCO)c(F)cc1-c1cccc(CNc2ccc(Cn3oc(=O)[n-]c3=O)cc2)c1C.[Na+] [Example 85] was tested, and the EC50 (human GPR40) was 420 nM, the inhibition in vivo at 10 mg/kg (normal mice) was 24% and the minimal effective dose (normal mice) was 3 mg/kg.

Cc1cc(-c2cccc(COc3ccc(Cn4oc(=O)[n-]c4=O)cc3)c2C)c(C)cc1OCCC(C)(C)O.[Na+] [Example 31] was tested, and the EC50 (human GPR40) was 69 nM, the inhibition in vivo at 10 mg/kg (normal mice) was 50% and the minimal effective dose (normal mice) was 1 mg/kg.

Cc1cc(OCC[C@@H](O)CO)cc(C)c1-c1cccc(CNc2ccc(Cn3oc(=O)[n-]c3=O)cc2)c1C.[Na+] [Example 101] gave an EC50 (human GPR40) of 230 nM, an inhibition in vivo at 10 mg/kg (normal mice) of 39% and a minimal effective dose (normal mice) of 3 mg/kg.

With Cc1c(COc2ccc(Cn3oc(=O)[n-]c3=O)cc2)cccc1-c1cccc(OCCC(C)(C)O)c1C.[Na+] [Example 27] the EC50 (human GPR40) was 230 nM, the inhibition in vivo at 10 mg/kg (normal mice) was 42% and the minimal effective dose (normal mice) was 1 mg/kg.
